The text below walks through data of ChEMBL document CHEMBL1152463 (Antimicrob Agents Chemother, 2008).

In brackets after ≈: the same amount, converted by molar mass. Activity calls are given as the source filed them. The rule behind the calls is not given here.

Series [1] has as its system Leishmania donovani. Briefly: Antileishmanial activity against Leishmania donovani MHOH/IN/1983/AD83 promastigotes assessed as inhibition of calcium uptake. It counts as functional, organism-based.
Series [2] deals with Mus musculus. Briefly: Toxicity in BALB/c mouse at 10 mg/kg, po. Particulars: in vivo. It counts as organism-based. More on the design: dose 10 mg/kg, route oral.
In series [3] the test system is Leishmania donovani. Description: Antileishmanial activity against Leishmania donovani MHOH/IN/1983/AD83 amastigotes infected in BALB/c mouse peritoneal macrophage assessed as cell killing at 15 ug/mL treated 6 hrs after infection measured after 48 hrs using Giemsa staining relative to control. It counts as functional.
In series [4] the test system is Leishmania donovani. Briefly: Antileishmanial activity against Leishmania donovani MHOH/IN/1983/AD83 amastigotes infected in BALB/c mouse peritoneal macrophage at 3 ug/mL treated 6 hrs after infection measured after 48 hrs using Giemsa staining relative to control. It counts as functional.
The test system of series [5] is Leishmania donovani. Briefly: Antileishmanial activity against Leishmania donovani MHOH/IN/1983/AD83 promastigotes assessed as viability after 2 hrs by MTT assay. It counts as functional, organism-based. The note with it: MHOH/IN/1983/AD83, 2 h.
Series [6] concerns Mus musculus. Briefly: Toxicity in BALB/c mouse assessed as kidney function at 10 mg/kg, po. It counts as organism-based. More on the design: dose 10 mg/kg, route oral. The note with it: in vivo.
The subject of series [7] is Leishmania donovani. Description: Antileishmanial activity against Leishmania donovani MHOH/IN/1983/AD83 promastigotes assessed as increase in caspase 3 like activation in parasite cytosol at 3 to 30 ug/mL after 2 hrs by spectrofluorimetric analysis. It counts as functional, organism-based.
For series [8], the system named is Leishmania donovani. Briefly: Antileishmanial activity against Leishmania donovani MHOH/IN/1983/AD83 promastigotes assessed as growth inhibition after 3 days by MTT assay. It counts as functional, organism-based. The note with it: MHOH/IN/1983/AD83, 72 h.
The subject of series [9] is Mus musculus. Briefly: Toxicity in BALB/c mouse assessed as liver function at 10 mg/kg, po. It counts as organism-based. Details: dose 10 mg/kg, route oral. Particulars: in vivo.
The test system of series [10] is Leishmania donovani. Description: Antileishmanial activity against Leishmania donovani MHOH/IN/1983/AD83 amastigotes infected in BALB/c mouse peritoneal macrophage treated 6 hrs after infection measured after 48 hrs using Giemsa staining relative to control. It counts as functional, organism-based.
Series [11] deals with Mus musculus. Description: Toxicity in BALB/c mouse assessed as heart function at 10 mg/kg, po. It counts as organism-based. Details: dose 10 mg/kg, route oral. Particulars: in vivo.
Series [12] concerns Leishmania donovani. Briefly: Antileishmanial activity against Leishmania donovani MHOH/IN/1983/AD83 promastigotes assessed as cell killing at 30 ug/mL after 2 hrs by MTT assay relative to control. It counts as functional.
Series [13] in a line: Toxicity in BALB/c mouse peritoneal macrophage assessed as toxic dose. It counts as cell-based. The note with it: peritoneal macrophage cell.
Series [14] relates to Leishmania donovani. Briefly: Antileishmanial activity against Leishmania donovani MHOH/IN/1983/AD83 promastigotes assessed as decrease in rate of oxygen consumption at 30 ug/mL after 2 hrs by polarographically with Clark electrode. It counts as functional. Details: scale not given: the % may be the effect or the level left.

`COc1ccc(CCN(C)CCCC(C#N)(c2ccc(OC)c(OC)c2)C(C)C)cc1OC` (stereo unspecified): the result in the series with Leishmania donovani [1] was Active.

`COc1ccc([C@@H]2Sc3ccccc3N(CCN(C)C)C(=O)[C@@H]2OC(C)=O)cc1`: in the series on Leishmania donovani [1], the result was Active.

On to `CCOC(=O)C1=C(COCCN)NC(C)=C(C(=O)OC)C1c1ccccc1Cl` (stereo unspecified) [AMLODIPINE], for which the Activity entry in the series with Mus musculus [2] was “Non-toxic”; in the series on Leishmania donovani [3], 96.39%; in the series on Leishmania donovani [4], more than 50%; in the series with Mus musculus [6], “Non-toxic”; in the series with Mus musculus [9], “Non-toxic”; with Leishmania donovani [10], “Dose-dependent effect”. The Activity entry in the series on Mus musculus [11] was “Non-toxic”; in the series on Leishmania donovani [12], 98.76%; in series [13], more than 100 µg/mL. Moreover, the outcome in the series on Leishmania donovani [1] and in the series with Leishmania donovani [7] was Active. Further, in the series with Leishmania donovani [5], the EC50 was found to be 2 µg/mL (≈ 4.89 µM). The results for the IC50 with Leishmania donovani [8] and in the series with Leishmania donovani [10] were 0.085 µg/mL (≈ 0.208 µM) and 2.1 µg/mL (≈ 5.14 µM), respectively.

With `CCOC(=O)C1=C(C)NC(C)=C(C(=O)OCC)C1c1ccccc1/C=C/C(=O)OC(C)(C)C` [LACIDIPINE], the Activity result in the series with Mus musculus [2] is listed as “Non-toxic”; in the series on Leishmania donovani [3] it was 85.66%; in the series with Leishmania donovani [4], more than 50%; in the series on Mus musculus [6], “Non-toxic”; with Leishmania donovani [14] it was 78%; with Mus musculus [9], “Non-toxic”. The Activity entry with Leishmania donovani [10] was “Dose-dependent effect”; in the series with Mus musculus [11] it was “Non-toxic”; in the series on Leishmania donovani [12] it was 90.5%; in [13] it was 150 µg/mL. Further, the result in the series on Leishmania donovani [1] and in the series with Leishmania donovani [7] was Active. Moreover, in the series on Leishmania donovani [5], the concentration for a half-maximal effect (EC50) is 2.5 µg/mL (≈ 5.49 µM). Also, the IC50 with Leishmania donovani [8] worked out at 1.45 µg/mL (≈ 3.18 µM); with Leishmania donovani [10] it was 2.8 µg/mL (≈ 6.15 µM).
